These results are taken from publication doi:10.1101/2020.11.19.390633v1 (biorxiv, 2020).

Structures are written as SMILES.

The assay concerns the target murine wtIDH1 (KPC cells) (Mus musculus, UniProt O88844). In words: cell-based IDH activity assay, NADPH synthesis, after IDH2 siRNA. Conditions: KPC murine cells, […] MgSO4, […] h; allosteric.

murine wtIDH1 (KPC cells), sequence (O88844 2-414): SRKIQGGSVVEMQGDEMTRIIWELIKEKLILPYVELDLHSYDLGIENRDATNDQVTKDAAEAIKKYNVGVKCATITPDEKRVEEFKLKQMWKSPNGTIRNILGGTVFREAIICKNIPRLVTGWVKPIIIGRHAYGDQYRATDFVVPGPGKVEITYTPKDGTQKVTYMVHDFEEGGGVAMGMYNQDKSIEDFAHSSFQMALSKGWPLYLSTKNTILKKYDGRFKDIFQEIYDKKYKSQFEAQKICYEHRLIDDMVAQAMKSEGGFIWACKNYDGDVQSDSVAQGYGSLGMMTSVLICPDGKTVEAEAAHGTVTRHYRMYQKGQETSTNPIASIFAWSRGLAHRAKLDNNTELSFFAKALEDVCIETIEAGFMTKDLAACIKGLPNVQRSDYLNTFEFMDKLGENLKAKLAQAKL

On to `N#Cc1ccnc(N2C(=O)CC[C@H]2C(=O)N(c2cncc(F)c2)[C@H](C(=O)NC2CC(F)(F)C2)c2ccccc2Cl)c1` [AG-120], for which the half-maximal effective concentration (EC50) worked out at 110 ± 2 nM.
